Our source for the EC50 values is US9527834B2, “Substituted 1-benzylquinoxalin-2(1H)-one analogs as positive allosteric modulators of muscarinic acetylcholine receptor M1” (Vanderbilt University, priority 2013, dated 2016).

This assay has as its target T1, mAChR M1 (Homo sapiens, UniProt P11229).
T1 construct: expressed in transfected cells; host or cells: CHO-K1
T1 sequence (P11229 1-460): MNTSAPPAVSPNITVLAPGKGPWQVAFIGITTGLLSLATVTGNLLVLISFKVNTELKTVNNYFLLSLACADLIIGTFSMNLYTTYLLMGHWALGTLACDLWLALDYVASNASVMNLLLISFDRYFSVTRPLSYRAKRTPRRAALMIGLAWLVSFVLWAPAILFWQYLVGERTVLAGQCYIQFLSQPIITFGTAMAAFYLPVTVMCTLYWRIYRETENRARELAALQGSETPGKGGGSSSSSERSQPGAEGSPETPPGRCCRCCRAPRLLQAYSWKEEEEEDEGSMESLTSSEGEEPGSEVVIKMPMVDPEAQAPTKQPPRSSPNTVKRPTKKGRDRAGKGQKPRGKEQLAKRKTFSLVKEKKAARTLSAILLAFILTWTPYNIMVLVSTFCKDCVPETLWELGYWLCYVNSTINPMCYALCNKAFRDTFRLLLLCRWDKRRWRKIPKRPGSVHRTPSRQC
Kind of assay: mAChR M1 cell-based functional assay (calcium mobilization, potentiation of EC20 acetylcholine response). The following applies: mAChR M1-expressing CHO-K1 cells; calcium flux; >10 μM estimated for low potency (no plateau) with >20% increase in ACh response. The source says:
Chinese hamster ovary (CHO-K1) cells stably expressing rat (r)M1 were purchased from the American Type Culture Collection and cultured according to their indicated protocol. CHO cells stably expressing human (h)M2, hM3, and hM5 were described previously (Levey, A. I., et al., J Neurosci. 1991, 11, 3218-3226.); hM1 and hM4 cDNAs were purchased from Missouri S&T cDNA Resource; rM4 cDNA was provided by T. I. Bonner (National Institutes of Health, Bethesda, Md.). rM2 and rM3 were cloned from a rat brain cDNA library and sequence verified. hM1, rM2, rM3, hM4, and rM4 cDNAs were used to stably transfect CHO-K1 cells purchased from the American Type Culture Collection using Lipofectamine2000. […]
Calcium flux was measured using the Functional Drug Screening System (FDSS) 6000 (Hamamatsu Corporation, Tokyo, Japan) as an increase in the fluorescent static ratio. […] Agonist activity was analyzed as a concentration-dependent increase in calcium mobilization upon compound addition. Positive allosteric modulator activity was analyzed as a concentration-dependent increase in the EC20 acetylcholine response. Antagonist activity was analyzed as a concentration-dependent decrease in the EC80 acetylcholine response. […]

pEC50: −log10 of the molar value.

Turning to `Cn1cc(-c2ccc(Cn3c(=O)cnc4ccccc43)cc2)cn1` [Compound B2], the pEC50 is less than 5.00. For `Cn1cc2c(-c3cc(F)c(Cn4c(=O)cnc5ccccc54)c(F)c3)cccc2n1` [Compound B1, 1-(2,6-difluoro-4-(2-methyl-2H-indazol-4-yl)benzyl)quinoxalin-2(1H)-one] the value was 5.46.
